# Measured values reported in the supplement of paper PMC11208160.
# Test: recombinant barcode read abundance after kanamycin selection (control-corrected) (log10(CPM+1)); higher = more efficient recombination; sequences stand for … in AGTGCAGAGAAAATCGGCCAGTTTTCTCTGCCTGCAGTCCGCATGCCGT…ATTTATGCAGCGGACTGCCTTTCTCCCAAAGTGATAAACCGGACAGTATCATGGACCGGTTTTCCCGGTAATCCGTATTTGCAAGGTTGGTTTCACT; site = the 11-nt target
# Protocol: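 Same pooled E. coli target screen (IS621 bridge recombinase, kanamycin selection, control-corrected CPM, mean of 2 biological replicates). Here the two core-binding nucleotides of the LTG and RTG of the bridge RNA target-binding loop are mutated. Target and donor CT cores are held constant, and the other 9 guide positions match the target. The target is read from the library oligo sequence. Molecule = full bridge RNA written as DNA: nt 1-80 from the library oligo, rest WT scaffold.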
row,Sequence,recombinant barcode read abundance (log10)
1,"AAACACACTTGGGTTCTAACCTGTTGCCTTG [AAACACACTAG_LTGcore_CT_RTGcore_CA] (site AAACACACTAG) (LTG core: CT, RTG core: CA)",0.248
2,"AAACACAGATGGGTTCTAACCTGTTGCCTTC [AAACACACTAG_LTGcore_GA_RTGcore_GA] (site AAACACACTAG) (LTG core: GA, RTG core: GA)",0.152
3,"AAACACAGCTGGGTTCTAACCTGTTGCCTAG [AAACACACTAG_LTGcore_GC_RTGcore_CT] (site AAACACACTAG) (LTG core: GC, RTG core: CT)",0.0255
4,"AAACACAGGTGGGTTCTAACCTGTTGCCTAG [AAACACACTAG_LTGcore_GG_RTGcore_CT] (site AAACACACTAG) (LTG core: GG, RTG core: CT)",0.463
5,"AAACACAGGTGGGTTCTAACCTGTTGCCTCC [AAACACACTAG_LTGcore_GG_RTGcore_GG] (site AAACACACTAG) (LTG core: GG, RTG core: GG)",0.0137
6,"AAACACATGTGGGTTCTAACCTGTTGCCTAG [AAACACACTAG_LTGcore_TG_RTGcore_CT] (site AAACACACTAG) (LTG core: TG, RTG core: CT)",0.247
7,"AAACACATTTGGGTTCTAACCTGTTGCCTAA [AAACACACTAG_LTGcore_TT_RTGcore_TT] (site AAACACACTAG) (LTG core: TT, RTG core: TT)",0.889
8,"AAACAGTAATGGGTTCTAACCTGTTGCCTTT [AAACAGTCTAG_LTGcore_AA_RTGcore_AA] (site AAACAGTCTAG) (LTG core: AA, RTG core: AA)",0.199
9,"AAACAGTCCTGGGTTCTAACCTGTTGCCTGG [AAACAGTCTAG_LTGcore_CC_RTGcore_CC] (site AAACAGTCTAG) (LTG core: CC, RTG core: CC)",0.0864
10,"AAACAGTCTTGGGTTCTAACCTGTTGCCTAC [AAACAGTCTAG_LTGcore_CT_RTGcore_GT] (site AAACAGTCTAG) (LTG core: CT, RTG core: GT)",0.553
11,"AAACAGTCTTGGGTTCTAACCTGTTGCCTCG [AAACAGTCTAG_LTGcore_CT_RTGcore_CG] (site AAACAGTCTAG) (LTG core: CT, RTG core: CG)",1.3
12,"AAACAGTCTTGGGTTCTAACCTGTTGCCTGT [AAACAGTCTAG_LTGcore_CT_RTGcore_AC] (site AAACAGTCTAG) (LTG core: CT, RTG core: AC)",1.66
13,"AAACAGTCTTGGGTTCTAACCTGTTGCCTTT [AAACAGTCTAG_LTGcore_CT_RTGcore_AA] (site AAACAGTCTAG) (LTG core: CT, RTG core: AA)",1.32
14,"AAACAGTGCTGGGTTCTAACCTGTTGCCTGC [AAACAGTCTAG_LTGcore_GC_RTGcore_GC] (site AAACAGTCTAG) (LTG core: GC, RTG core: GC)",0.0997
15,"AAACAGTGGTGGGTTCTAACCTGTTGCCTCC [AAACAGTCTAG_LTGcore_GG_RTGcore_GG] (site AAACAGTCTAG) (LTG core: GG, RTG core: GG)",0.0531
16,"AAACAGTGTTGGGTTCTAACCTGTTGCCTAC [AAACAGTCTAG_LTGcore_GT_RTGcore_GT] (site AAACAGTCTAG) (LTG core: GT, RTG core: GT)",0.0266
17,"AAACAGTGTTGGGTTCTAACCTGTTGCCTAG [AAACAGTCTAG_LTGcore_GT_RTGcore_CT] (site AAACAGTCTAG) (LTG core: GT, RTG core: CT)",0.0452
18,"AAACAGTTGTGGGTTCTAACCTGTTGCCTAG [AAACAGTCTAG_LTGcore_TG_RTGcore_CT] (site AAACAGTCTAG) (LTG core: TG, RTG core: CT)",0.029
19,"AAACAGTTTTGGGTTCTAACCTGTTGCCTAA [AAACAGTCTAG_LTGcore_TT_RTGcore_TT] (site AAACAGTCTAG) (LTG core: TT, RTG core: TT)",0.182
20,"AAACATGAGTGGGTTCTAACCTGTTGCCTAG [AAACATGCTAG_LTGcore_AG_RTGcore_CT] (site AAACATGCTAG) (LTG core: AG, RTG core: CT)",0.109
21,"AAACATGAGTGGGTTCTAACCTGTTGCCTCT [AAACATGCTAG_LTGcore_AG_RTGcore_AG] (site AAACATGCTAG) (LTG core: AG, RTG core: AG)",0.191

row,Sequence,recombinant barcode read abundance (log10)
1,"AAACATGCGTGGGTTCTAACCTGTTGCCTCG [AAACATGCTAG_LTGcore_CG_RTGcore_CG] (site AAACATGCTAG) (LTG core: CG, RTG core: CG)",0.135
2,"AAACATGCTTGGGTTCTAACCTGTTGCCTAT [AAACATGCTAG_LTGcore_CT_RTGcore_AT] (site AAACATGCTAG) (LTG core: CT, RTG core: AT)",0.681
3,"AAACATGCTTGGGTTCTAACCTGTTGCCTCA [AAACATGCTAG_LTGcore_CT_RTGcore_TG] (site AAACATGCTAG) (LTG core: CT, RTG core: TG)",0.288
4,"AAACATGCTTGGGTTCTAACCTGTTGCCTCG [AAACATGCTAG_LTGcore_CT_RTGcore_CG] (site AAACATGCTAG) (LTG core: CT, RTG core: CG)",1.02
5,"AAACATGCTTGGGTTCTAACCTGTTGCCTCT [AAACATGCTAG_LTGcore_CT_RTGcore_AG] (site AAACATGCTAG) (LTG core: CT, RTG core: AG)",0.435
6,"AAACATGCTTGGGTTCTAACCTGTTGCCTGT [AAACATGCTAG_LTGcore_CT_RTGcore_AC] (site AAACATGCTAG) (LTG core: CT, RTG core: AC)",1.55
7,"AAACATGCTTGGGTTCTAACCTGTTGCCTTC [AAACATGCTAG_LTGcore_CT_RTGcore_GA] (site AAACATGCTAG) (LTG core: CT, RTG core: GA)",0.572
8,"AAACATGCTTGGGTTCTAACCTGTTGCCTTG [AAACATGCTAG_LTGcore_CT_RTGcore_CA] (site AAACATGCTAG) (LTG core: CT, RTG core: CA)",1.17
9,"AAACATGGATGGGTTCTAACCTGTTGCCTTC [AAACATGCTAG_LTGcore_GA_RTGcore_GA] (site AAACATGCTAG) (LTG core: GA, RTG core: GA)",0.0557
10,"AAACATGGTTGGGTTCTAACCTGTTGCCTAG [AAACATGCTAG_LTGcore_GT_RTGcore_CT] (site AAACATGCTAG) (LTG core: GT, RTG core: CT)",0.108
11,"AAACATGTTTGGGTTCTAACCTGTTGCCTAG [AAACATGCTAG_LTGcore_TT_RTGcore_CT] (site AAACATGCTAG) (LTG core: TT, RTG core: CT)",0.0409
12,"ACGGGACAATGGGTTCTAACCTGTTGCAGAG [ACGGGACCTCT_LTGcore_AA_RTGcore_CT] (site ACGGGACCTCT) (LTG core: AA, RTG core: CT)",0.0324
13,"ACGGGACAATGGGTTCTAACCTGTTGCAGTT [ACGGGACCTCT_LTGcore_AA_RTGcore_AA] (site ACGGGACCTCT) (LTG core: AA, RTG core: AA)",0.298
14,"ACGGGACAGTGGGTTCTAACCTGTTGCAGCT [ACGGGACCTCT_LTGcore_AG_RTGcore_AG] (site ACGGGACCTCT) (LTG core: AG, RTG core: AG)",0.237
15,"ACGGGACCCTGGGTTCTAACCTGTTGCAGGG [ACGGGACCTCT_LTGcore_CC_RTGcore_CC] (site ACGGGACCTCT) (LTG core: CC, RTG core: CC)",1.21
16,"ACGGGACCTTGGGTTCTAACCTGTTGCAGAC [ACGGGACCTCT_LTGcore_CT_RTGcore_GT] (site ACGGGACCTCT) (LTG core: CT, RTG core: GT)",0.9
17,"ACGGGACCTTGGGTTCTAACCTGTTGCAGAT [ACGGGACCTCT_LTGcore_CT_RTGcore_AT] (site ACGGGACCTCT) (LTG core: CT, RTG core: AT)",1.4
18,"ACGGGACCTTGGGTTCTAACCTGTTGCAGGA [ACGGGACCTCT_LTGcore_CT_RTGcore_TC] (site ACGGGACCTCT) (LTG core: CT, RTG core: TC)",0.528
19,"ACGGGACGATGGGTTCTAACCTGTTGCAGAG [ACGGGACCTCT_LTGcore_GA_RTGcore_CT] (site ACGGGACCTCT) (LTG core: GA, RTG core: CT)",0.81
20,"ACGGGACGCTGGGTTCTAACCTGTTGCAGAG [ACGGGACCTCT_LTGcore_GC_RTGcore_CT] (site ACGGGACCTCT) (LTG core: GC, RTG core: CT)",0.257
